Pest or weed control and chromatographic logP data for 13 molecules are collected here from patent US8383139B2 (Bayer CropScience AG, priority 2008, dated 2013).

The structures appear in SMILES notation.

The test system of one series is Sphaerotheca fuliginea. The experiment in a line: Sphaerotheca test (cucumber)/protective. The class given is in vivo. Conditions: Podosphaera fuliginea, 168 h, 500 ppm active substance, protective, evaluation 7 days after inoculation, read-out: degree of effectiveness. An outline of the steps:
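Young cucumber plants sprayed at the stated rate with active substance in DMF/alkylaryl polyglycol ether emulsifier diluted in water, then inoculated with Sphaerotheca fuliginea spores one day later. Kept in greenhouse at 70% relative humidity, 23° C.; scored 7 days post-inoculation as % efficacy (0% = untreated control, 100% = no infestation).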

In a further series the test system is Phakopsora pachyrhizi. The experiment in a line: Phakopsora test (soybean)/protective. Conditions: 264 h, 500 ppm active substance, protective, evaluation 11 days after inoculation, read-out: degree of effectiveness. The class given is in vivo. The method, then:
• Solvent: 28.5 parts by weight of acetone • Emulsifier: 1.5 parts by weight of polyoxyethylene alkylphenyl ether (polyoxy-ethylene (16) tristearylphenyl ether)
To prepare a suitable active substance composition, 1 part by weight of active substance is mixed with the given amounts of solvent and emulsifier and the concentrate is diluted to the desired concentration using water.
For the testing of protective effectiveness, young plants are sprayed with the active substance composition at the application rate given. One day after the spraying, the plants are sprayed with an aqueous suspension of spores of Phakopsora pachyrhizi. The plants remain in a greenhouse at 20° C. and 80% relative humidity.
Evaluation is carried out 11 days after the inoculation. In this connection, 0% means a degree of effectiveness corresponding to that of the control, while a degree of effectiveness of 100% means that no infestation is observed.

The subject of the next series is Alternaria solani. The experiment in a line: Alternaria test (tomato)/protective. The class given is in vivo. Conditions: 72 h, 100 ppm active substance, protective, evaluation 3 days after inoculation, read-out: degree of effectiveness. The method, then:
• Solvents: 24.5 parts by weight of acetone • 24.5 parts by weight of dimethylacetamide • Emulsifier: 1 part by weight of alkylaryl polyglycol ether (polyoxyethylene (16) tristearylphenyl ether)
To prepare a suitable active substance composition, 1 part by weight of active substance is mixed with the given amounts of solvents and emulsifier and the concentrate is diluted to the desired concentration using water.
For the testing of protective effectiveness, young plants are sprayed with the active substance composition in the application rate given. After the spray coating has been dried on, the plants are inoculated with an aqueous suspension of spores of Alternaria solani. The plants are then placed in an incubation chamber at approximately 20° C. and 100% relative humidity.
Evaluation is carried out 3 days after the inoculation. In this connection, 0% means a degree of effectiveness corresponding to that of the control, while a degree of effectiveness of 100% means that no infestation is observed.

In a further series the test system is Puccinia triticina. The experiment in a line: Puccinia triticina test (wheat)/protective. Conditions: 192 h, 500 ppm active substance, protective, evaluation 8 days after inoculation, read-out: degree of effectiveness. The class given is in vivo. An outline of the steps: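 Protective test: young wheat plants sprayed with compound (in N,N-dimethylacetamide/emulsifier, diluted in water) at the stated rate, dried, then inoculated with Puccinia triticina spores; 48 h at 20 °C, 100% RH, then greenhouse ~20 °C, ~80% RH. Efficacy scored 8 days post-inoculation, 0% = untreated control, 100% = no infestation.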

A further series concerns Septoria tritici. The experiment in a line: Septoria tritici test (wheat)/protective. The class given is in vivo. As to conditions: Zymoseptoria tritici, 504 h, 500 ppm active substance, protective, evaluation 21 days after inoculation, read-out: degree of effectiveness. An outline of the steps:
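Young wheat plants sprayed with compound in dimethylacetamide/emulsifier-water, then inoculated with S. tritici spores once dry. Kept 48 h at 20 °C/100% RH, 60 h at 15 °C/100% RH, then greenhouse ~15 °C/80% RH. Scored 21 days post-inoculation as % efficacy versus untreated control.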

In the next series the test system is Uromyces appendiculatus. The experiment in a line: Uromyces test (beans)/protective. It counts as in vivo. As to conditions: 240 h, 100 ppm active substance, protective, evaluation 10 days after inoculation, read-out: degree of effectiveness. An outline of the steps:
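Young bean plants were sprayed with compound (acetone/dimethylacetamide/emulsifier concentrate diluted in water), dried, then inoculated with U. appendiculatus spores. They were held 1 day at ~20 °C, 100% RH, then kept in a greenhouse at ~21 °C, ~90% RH. Efficacy was scored at 10 days post-inoculation (0% = control, 100% = no infestation).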

The nature of series [1]: log P by HPLC on reversed-phase columns (C 18), EEC Directive 79/831 Annex V.A8. Conditions: reversed-phase C18 HPLC column, pH 2.3, [a] HPLC, acid region pH 2.3, 0.1% aqueous phosphoric acid and acetonitrile; read-out: log p. The class given is physicochemical.

In the case of `CCN(C)C=Nc1cc(C)c(Oc2nc(Cc3ccc(Cl)cc3)ns2)cc1C` [Example 1, N′-(4-{[3-(4-chlorobenzyl)-1,2,4-thiadiazol-5-yl]oxy}-2,5-dimethylphenyl)-N-ethyl-N-methylimidoformamide], the pest or weed control at 500 ppm was at least 70% in the series with Sphaerotheca fuliginea, at least 80% in the series with Phakopsora pachyrhizi, at least 70% in the series on Puccinia triticina and at least 70% in the series on Septoria tritici. Besides, the pest or weed control at 100 ppm in the series on Alternaria solani and in the series on Uromyces appendiculatus was at least 70% throughout.

Take `Cc1cc(Oc2nc(Cc3ccc(Cl)cc3)ns2)c(C)cc1N=CN1CCCCC1` [Example 2, 4-{[3-(4-chlorobenzyl)-1,2,4-thiadiazol-5-yl]oxy}-2,5-dimethyl-N-(piperidin-1-ylmethylidene)aniline]: the pest or weed control at 500 ppm in the series on Sphaerotheca fuliginea is at least 70%; in the series on Phakopsora pachyrhizi it was at least 80%; in the series with Puccinia triticina, at least 70%; in the series on Septoria tritici, at least 70%. The chromatographic logP in series [1] amounted to 2.09. Moreover, the pest or weed control at 100 ppm in the series with Alternaria solani and in the series with Uromyces appendiculatus was at least 70% each time.

Take `CCN(C)C=Nc1cc(Cl)c(Oc2nc(Cc3ccc(Cl)cc3)ns2)cc1C` [Example 3, N′-(5-chloro-4-{[3-(4-chlorobenzyl)-1,2,4-thiadiazol-5-yl]oxy}-2-methylphenyl)-N-ethyl-N-methylimidoformamide]: the pest or weed control at 500 ppm in the series with Sphaerotheca fuliginea is at least 70%; in the series with Phakopsora pachyrhizi it was at least 80%; with Puccinia triticina, at least 70%; with Septoria tritici, at least 70%. In addition, the pest or weed control at 100 ppm in the series with Alternaria solani and with Uromyces appendiculatus was at least 70% throughout.

For the molecule `CCN(C)C=Nc1cc(C)c(Oc2nc(C(C)c3ccccc3)ns2)cc1C` (stereo not shown) [Example 5, N′-(2,5-dimethyl-4-{[3-(1-phenylethyl)-1,2,4-thiadiazol-5-yl]oxy}phenyl)-N-ethyl-N-methylimidoformamide], the pest or weed control at 500 ppm in the series on Sphaerotheca fuliginea is at least 70%; with Phakopsora pachyrhizi it was at least 80%; with Puccinia triticina it was at least 70%. Further, the chromatographic logP in series [1] was 1.92. The pest or weed control at 100 ppm in the series with Alternaria solani and in the series on Uromyces appendiculatus was at least 70% throughout.

On to `CCN(C)C=Nc1cc(C)c(Oc2nc(Cc3ccc(Cl)cc3Cl)ns2)cc1C` [Example 11, N′-(4-{[3-(2,4-dichlorobenzyl)-1,2,4-thiadiazol-5-yl]oxy}-2,5-dimethylphenyl)-N-ethyl-N-methylimidoformamide], for which the pest or weed control at 500 ppm was at least 70% in the series on Sphaerotheca fuliginea, at least 80% in the series with Phakopsora pachyrhizi, at least 70% in the series on Puccinia triticina and at least 70% in the series with Septoria tritici. The chromatographic logP in series [1] is 2.19. Also, the pest or weed control at 100 ppm with Alternaria solani and with Uromyces appendiculatus was at least 70% throughout.

For `CCN(C)C=Nc1cc(C)c(Oc2nc(C(C)c3ccc(Cl)cc3)ns2)cc1C` (stereo not shown) [Example 17, N′-[4-({3-[1-(4-chlorophenyl)ethyl]-1,2,4-thiadiazol-5-yl}oxy)-2,5-dimethylphenyl]-N-ethyl-N-methylimidoformamide], the pest or weed control at 500 ppm with Sphaerotheca fuliginea was at least 70%; with Phakopsora pachyrhizi it was at least 80%; with Puccinia triticina it was at least 70%; with Septoria tritici, at least 70%. Also, the chromatographic logP in series [1] was 2.34. Further, the pest or weed control at 100 ppm in the series with Alternaria solani and in the series on Uromyces appendiculatus was at least 70% in each case.

For `CCN(C)C=Nc1cc(Cl)c(Oc2nc(C(C)c3ccc(Cl)cc3)ns2)cc1C` (stereo not shown) [Example 20, N′-[5-chloro-4-({3-[1-(4-chlorophenyl)ethyl]-1,2,4-thiadiazol-5-yl}oxy)-2-methylphenyl]-N-ethyl-N-methylimidoformamide], the pest or weed control at 500 ppm in the series on Sphaerotheca fuliginea was at least 70%; in the series with Phakopsora pachyrhizi, at least 80%; with Puccinia triticina it was at least 70%. Moreover, in series [1], the chromatographic logP amounted to 2.39. For the same molecule, the pest or weed control at 100 ppm in the series on Uromyces appendiculatus is at least 70%.

Consider `CCN(C)C=Nc1cc(C)c(Oc2nc(Cc3ccc(C)cc3[N+](=O)[O-])ns2)cc1C` [Example 24, N′-(2,5-dimethyl-4-{[3-(4-methyl-2-nitrobenzyl)-1,2,4-thiadiazol-5-yl]oxy}phenyl)-N-ethyl-N-methylimidoformamide], for which the pest or weed control at 500 ppm with Sphaerotheca fuliginea is at least 70%; in the series with Phakopsora pachyrhizi it was at least 80%; with Puccinia triticina, at least 70%; with Septoria tritici it was at least 70%. Moreover, the chromatographic logP in series [1] was found to be 1.89. The pest or weed control at 100 ppm in the series with Alternaria solani and with Uromyces appendiculatus was at least 70% throughout.

Regarding `CCN(C)C=Nc1cc(C)c(Oc2nc(C(C)(C)c3ccc(Cl)cc3)ns2)cc1C` [Example 25, N′-[4-({3-[2-(4-chlorophenyl)propan-2-yl]-1,2,4-thiadiazol-5-yl}oxy)-2,5-dimethylphenyl]-N-ethyl-N-methylimidoformamide], the pest or weed control at 500 ppm in the series on Sphaerotheca fuliginea is at least 70%; in the series with Phakopsora pachyrhizi, at least 80%; in the series on Puccinia triticina, at least 70%; in the series with Septoria tritici, at least 70%. Moreover, the chromatographic logP in series [1] is 2.55. The pest or weed control at 100 ppm in the series on Alternaria solani and with Uromyces appendiculatus was at least 70% throughout.

For the molecule `Cc1cc(Oc2nc(Cc3ccc(Br)cc3)ns2)c(C)cc1N=CN(C)C(C)C` [Example 32, N′-(4-{[3-(4-bromobenzyl)-1,2,4-thiadiazol-5-yl]oxy}-2,5-dimethylphenyl)-N-methyl-N-(propan-2-yl)imidoformamide], the pest or weed control at 500 ppm with Sphaerotheca fuliginea was at least 70%; with Phakopsora pachyrhizi, at least 80%; with Puccinia triticina, at least 70%; with Septoria tritici, at least 70%. For the same molecule, the pest or weed control at 100 ppm in the series with Alternaria solani and in the series with Uromyces appendiculatus was at least 70% throughout.

Consider `CCN(C)C=Nc1cc(C)c(Oc2nc(Cc3ccccc3C(F)(F)F)ns2)cc1C` [Example 42, N′-[2,5-dimethyl-4-({3-[2-(trifluoromethyl)benzyl]-1,2,4-thiadiazol-5-yl}oxy)phenyl]-N-ethyl-N-methylimidoformamide], for which the pest or weed control at 500 ppm in the series on Sphaerotheca fuliginea, in the series on Puccinia triticina and with Septoria tritici was at least 70% in each case. Also, the chromatographic logP in series [1] is 2.1. For the same molecule, the pest or weed control at 100 ppm in the series on Alternaria solani and in the series on Uromyces appendiculatus was at least 70% each time.

`Cc1cc(Oc2nc(Cc3ccc(Cl)c(Cl)c3)ns2)c(C)cc1N=CN(C)C(C)C` [Example 47, N′-(4-{[3-(3,4-dichlorobenzyl)-1,2,4-thiadiazol-5-yl]oxy}-2,5-dimethylphenyl)-N-methyl-N-(propan-2-yl)imidoformamide]: the pest or weed control at 500 ppm in the series with Sphaerotheca fuliginea, with Puccinia triticina and with Septoria tritici was at least 70% each time. In addition, the chromatographic logP in series [1] was 2.35. For the same molecule, the pest or weed control at 100 ppm in the series with Alternaria solani and in the series on Uromyces appendiculatus was at least 70% throughout.

`CCN(C)C=Nc1cc(C)c(Oc2nc(Cc3ccc(Cl)c(Cl)c3)ns2)cc1C` [Example 51, N′-(4-{[3-(3,4-dichlorobenzyl)-1,2,4-thiadiazol-5-yl]oxy}-2,5-dimethylphenyl)-N-ethyl-N-methylimidoformamide]: the pest or weed control at 500 ppm with Sphaerotheca fuliginea, in the series on Puccinia triticina and with Septoria tritici was at least 70% throughout. Besides, the chromatographic logP in series [1] was found to be 2.3. Besides, the pest or weed control at 100 ppm in the series on Alternaria solani and in the series with Uromyces appendiculatus was at least 70% in each case.
